Read-outs that look alike come from different tables or passages of the source.
Key:
liver cell = tested on: liver cell; design: unit not given here; settings: cited from earlier work
skeletal muscle = assay: Human clinical trial with statins: skeletal muscle cholesterol and ubiquinone (Paiva et al.); type: in vivo

SMILES | Cholesterol (liver cell; DOSE 0.01) | Cholesterol (liver cell; DOSE 3) | Cholesterol (liver cell; DOSE 10) | Cholesterol (liver cell; DOSE 20) | Ubiquinone, Percent from placebo (skeletal muscle; drop) [% drop] | Cholesterol, Percent from placebo (skeletal muscle; rise) [% rise]
CC(C)c1c(C(=O)Nc2ccccc2)c(-c2ccccc2)c(-c2ccc(F)cc2)n1CC[C@@H](O)C[C@@H](O)CC(=O)O [atorvastatin] | 15.52 | 14.27 | 13.71 | 13.66 |  | 
CCC(C)(C)C(=O)O[C@H]1C[C@@H](C)C=C2C=C[C@H](C)[C@H](CC[C@@H]3C[C@@H](O)CC(=O)O3)[C@H]21 [simvastatin] |  |  |  |  | 134 | 139

From patent US20130191098A1, “METHODS AND SYSTEMS FOR SIMULATIONS OF COMPLEX BIOLOGICAL NETWORKS USING GENE EXPRESSION INDEXING IN COMPUTATIONAL MODELS” (BOARD OF REGENTS OF THE UNIVERSITY OF TEXAS SYSTEM, priority 2010, published 2013)
